Each structure is given as a SMILES string.

The target in one experiment is T1, PHD2181-417 (Homo sapiens, UniProt Q9GZT9).
T1 construct: histidine tag (N, cleaved yes); Smt3 (SUMO) tag (N, cleaved yes); made in house; host or cells: E. coli BL21 (pBAD vector)
Nature of the experiment: PHD enzyme activity assay ([14C]-succinic acid production).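 Note: enzyme expressed in E. coli BL21, assayed in Tris-HCl pH 7.5 with catalase, DTT and ascorbate, [14C]-succinic acid beta-counted after DNP precipitation of residual 2-oxoglutarate.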 Particulars: inhibition of PHD2181-417 activity; HIF-1α peptide 10 μM, [5-14C]-2-oxoglutaric acid, 10 minutes; read-out: Enzyme pIC50 (converted). It counts as biochemical.

The test system of another experiment is Hep-3B cells. Nature of the experiment: Cellular assay: EPO secretion in Hep-3B cells. The settings on record: final compound concentration 100 μM, 24 hours, percent of EPO secretion relative to assay control compound. It counts as cell-based, human.

T1 sequence (Q9GZT9 181-417): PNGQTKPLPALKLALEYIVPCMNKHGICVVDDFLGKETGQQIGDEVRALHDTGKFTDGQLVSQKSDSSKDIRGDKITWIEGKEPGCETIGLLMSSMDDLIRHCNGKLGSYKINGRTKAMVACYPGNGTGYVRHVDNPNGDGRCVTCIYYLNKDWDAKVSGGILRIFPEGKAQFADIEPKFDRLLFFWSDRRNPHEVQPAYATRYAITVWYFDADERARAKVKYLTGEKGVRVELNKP

As to `O=C(O)c1cnn(-c2nc3cc(-c4cccc(O)c4)ccc3[nH]2)c1` [Example 60, 1-[5-(3-Hydroxy-phenyl)-1H-benzoimidazol-2-yl]-1H-pyrazole-4-carboxylic acid], at PHD2181-417, the IC50 was 316 nM. In the case of `O=C(O)CNC(=O)c1nc2cc(-c3ccc(Oc4ccccc4)cc3)ccc2[nH]1` [Example 18, {[5-(4-Phenoxy-phenyl)-1H-benzoimidazole-2-carbonyl]-amino}-acetic acid], the IC50 at PHD2181-417 is 7940 nM. The “Cellular % EPO Stimulation” value in the experiment on Hep-3B cells is 2.00%. Turning to `C[C@H](NC(=O)c1nc2cc(C(F)(F)F)cc(C(F)(F)F)c2[nH]1)C(=O)O` [Example 7, (S)-2-[(5,7-Bis-trifluoromethyl-1H-benzoimidazole-2-carbonyl)-amino]-propionic acid], the “Cellular % EPO Stimulation” value in the experiment with Hep-3B cells was 1.60%.

Regarding `O=C(O)CNC(=O)c1nc2cc(I)ccc2[nH]1` [Example 8, [(5-Iodo-1H-benzoimidazole-2-carbonyl)-amino]-acetic acid], at PHD2181-417, the IC50 is 39800 nM. The “Cellular % EPO Stimulation” value in the experiment with Hep-3B cells is reported as 3.80%. For the molecule `O=C(O)c1cnn(-c2nc3cc(-c4cccc(OCc5ccccc5)c4)ccc3[nH]2)c1` [Example 46, 1-[5-(3-Benzyloxy-phenyl)-1H-benzoimidazol-2-yl]-1H-pyrazole-4-carboxylic acid], on PHD2181-417, the IC50 is 50.1 nM.

With `O=C(O)c1cnn(-c2nc3c(Cl)cc(C(F)(F)F)cc3[nH]2)c1` [Example 39, 1-(4-Chloro-6-trifluoromethyl-1H-benzoimidazol-2-yl)-1H-pyrazole-4-carboxylic acid], the IC50 on PHD2181-417 was 158 nM. Take `C[C@@H](NC(=O)c1nc2cc(C(F)(F)F)cc(C(F)(F)F)c2[nH]1)C(=O)O` [Example 52, (R)-2-[(5,7-Bis-trifluoromethyl-1H-benzoimidazole-2-carbonyl)-amino]-propionic acid]: the “Cellular % EPO Stimulation” value in the experiment with Hep-3B cells is reported as 17.80%. `O=C(O)c1cnn(-c2nc3cc(-c4ccc(Cl)c(Cl)c4)ccc3[nH]2)c1` [Example 49, 1-[5-(3,4-Dichloro-phenyl)-1H-benzoimidazol-2-yl]-1H-pyrazole-4-carboxylic acid]: on PHD2181-417, the IC50 was 79.4 nM. In the case of `O=C(O)c1cnn(-c2nc3cc(-c4cccc(OCc5ccc(Cl)cc5)c4)ccc3[nH]2)c1` [Example 45, 1-{5-[3-(4-Chloro-benzyloxy)-phenyl]-1H-benzoimidazol-2-yl}-1H-pyrazole-4-carboxylic acid], the IC50 on PHD2181-417 was 39.8 nM. Besides, the “Cellular % EPO Stimulation” value with Hep-3B cells amounted to 2.10%. For `O=C(O)c1cnn(-c2nc3cc(-c4cccc(C(F)(F)F)c4)ccc3[nH]2)c1` [Example 48, 1-[5-(3-Trifluoromethyl-phenyl)-1H-benzoimidazol-2-yl]-1H-pyrazole-4-carboxylic acid], at PHD2181-417, the IC50 was 79.4 nM. Regarding `O=C(O)c1cnn(-c2nc3cc(Cl)ccc3[nH]2)c1` [Example 61, 1-(5-Chloro-1H-benzoimidazol-2-yl)-1H-pyrazole-4-carboxylic acid], the IC50 on PHD2181-417 is 501 nM. With `COc1cccc(-c2ccc3[nH]c(C(=O)NCC(=O)O)nc3c2)c1` [Example 23, {[5-(3-Methoxy-phenyl)-1H-benzoimidazole-2-carbonyl]-amino}-acetic acid], the IC50 on PHD2181-417 was 39800 nM. For the same molecule, in the experiment on Hep-3B cells, the “Cellular % EPO Stimulation” value worked out at 1.40%. Taken in the same sequence, the figures for `O=C(O)CNC(=O)c1nc2ccc([N+](=O)[O-])cc2[nH]1` [Example 5, [(6-Nitro-1H-benzoimidazole-2-carbonyl)-amino]-acetic acid] were 5010 nM and 0.00%. With `COc1cc2nc(-n3cc(C(=O)O)cn3)[nH]c2cc1OC` [Example 40, 1-(5,6-Dimethoxy-1H-benzoimidazol-2-yl)-1H-pyrazole-4-carboxylic acid], the IC50 on PHD2181-417 is 398 nM. For `Cc1c(Br)cc2nc(-n3cc(C(=O)O)cn3)[nH]c2c1C` [Example 62, 1-(5-Bromo-6,7-dimethyl-1H-benzoimidazol-2-yl)-1H-pyrazole-4-carboxylic acid], the IC50 at PHD2181-417 is 398 nM.

With `O=C(O)CNC(=O)c1nc2cc(-c3cccc(OCc4ccc(Cl)cc4)c3)ccc2[nH]1` [Example 15, ({5-[3-(4-Chloro-benzyloxy)-phenyl]-1H-benzoimidazole-2-carbonyl}-amino)-acetic acid], the IC50 on PHD2181-417 is 2510 nM. Besides, the “Cellular % EPO Stimulation” value in the experiment on Hep-3B cells is on record as −3.90%. On to `COc1ccc2nc(C(=O)NCC(=O)O)[nH]c2c1` [Example 12, [(6-Methoxy-1H-benzoimidazole-2-carbonyl)-amino]-acetic acid], for which, in the experiment on Hep-3B cells, the “Cellular % EPO Stimulation” value came out at 0.50%. With `O=C(O)c1cnn(-c2nc3cc(C(F)(F)F)ccc3[nH]2)c1` [Example 34, 1-(5-Trifluoromethyl-1H-benzoimidazol-2-yl)-1H-pyrazole-4-carboxylic acid], the IC50 at PHD2181-417 is 251 nM. For the same molecule, the “Cellular % EPO Stimulation” value with Hep-3B cells worked out at 127.80%. Turning to `C[C@H](NC(=O)c1nc2ccccc2[nH]1)C(=O)O` [Example 2, (S)-2-[(1H-Benzoimidazole-2-carbonyl)-amino]-propionic acid], the IC50 on PHD2181-417 was 39800 nM. In the experiment with Hep-3B cells, the “Cellular % EPO Stimulation” value turned out to be 66.03%. For the molecule `O=C(O)c1cnn(-c2nc3cc(Cl)c(Cl)cc3[nH]2)c1` [Example 33, 1-(5,6-Dichloro-1H-benzoimidazol-2-yl)-1H-pyrazole-4-carboxylic acid], the IC50 on PHD2181-417 is 100 nM. Also, in the experiment on Hep-3B cells, the “Cellular % EPO Stimulation” value was 168.46%. Consider `CCCOc1ccc(-c2ccc3[nH]c(C(=O)NCC(=O)O)nc3c2)cc1` [Example 26, {[5-(4-Propoxy-phenyl)-1H-benzoimidazole-2-carbonyl]-amino}-acetic acid], for which, on PHD2181-417, the IC50 is 15800 nM. Also, the “Cellular % EPO Stimulation” value in the experiment with Hep-3B cells is 2.50%. Consider `O=C(O)c1cn(-c2nc3cc(Cl)c(Cl)cc3[nH]2)nc1C(F)(F)F` [Example 56, 1-(5,6-dichloro-1H-benzoimidazol-2-yl)-3-trifluoromethyl-1H-pyrazole-4-carboxylic acid], for which the IC50 at PHD2181-417 was > 10000 nM. Same read-out and setting: with `O=C(O)c1cnn(-c2nc3cc(-c4ccc(OCc5ccccc5)cc4)ccc3[nH]2)c1` [Example 47, 1-[5-(4-Benzyloxy-phenyl)-1H-benzoimidazol-2-yl]-1H-pyrazole-4-carboxylic acid] the figure was 200 nM. Regarding `O=C(O)CNC(=O)c1nc2cc(NC(=O)c3ccccc3)ccc2[nH]1` [Example 29, [(5-Benzoylamino-1H-benzoimidazole-2-carbonyl)-amino]-acetic acid], the IC50 on PHD2181-417 is 63100 nM. In addition, the “Cellular % EPO Stimulation” value with Hep-3B cells is given as −3.30%. Regarding `C[C@@H](NC(=O)c1nc2ccc(F)cc2[nH]1)C(=O)O` [Example 11, (R)-2-[(6-Fluoro-1H-benzoimidazole-2-carbonyl)-amino]-propionic acid], at PHD2181-417, the IC50 is 79400 nM. Further, the “Cellular % EPO Stimulation” value with Hep-3B cells was determined as 23.93%.

With `O=C(O)c1cn(-c2nc3cc(Br)ccc3[nH]2)nc1C(F)(F)F` [Example 55, 1-(5-Bromo-1H-benzoimidazol-2-yl)-3-trifluoromethyl-1H-pyrazole-4-carboxylic acid], at PHD2181-417, the IC50 was > 100000 nM.

On to `Cc1ccc2[nH]c(-n3cc(C(=O)O)cn3)nc2c1C` [Example 41, 1-(4,5-Dimethyl-1H-benzoimidazol-2-yl)-1H-pyrazole-4-carboxylic acid], for which, at PHD2181-417, the IC50 was 7940 nM.

`O=C(O)c1cnn(-c2nc3cc(-c4cccc(OCc5cccc(Cl)c5)c4)ccc3[nH]2)c1` [Example 43, 1-{5-[3-(3-Chloro-benzyloxy)-phenyl]-1H-benzoimidazol-2-yl}-1H-pyrazole-4-carboxylic acid]: the IC50 at PHD2181-417 was 31.6 nM. Consider `O=C(O)c1cnn(-c2nc3cc(-c4cccc(OCc5ccccc5Cl)c4)ccc3[nH]2)c1` [Example 44, 1-{5-[3-(2-Chloro-benzyloxy)-phenyl]-1H-benzoimidazol-2-yl}-1H-pyrazole-4-carboxylic acid], for which the IC50 at PHD2181-417 is 25.1 nM. `O=C(O)CNC(=O)c1nc2cc(-c3cc(C(=O)NCc4ccccc4)ccc3F)ccc2[nH]1` [Example 24, {[5-(5-Benzylcarbamoyl-2-fluoro-phenyl)-1H-benzoimidazole-2-carbonyl]-amino}-acetic acid]: the IC50 at PHD2181-417 was 15800 nM. Also, in the experiment on Hep-3B cells, the “Cellular % EPO Stimulation” value is recorded as 13.56%.

With `O=C(O)CNC(=O)c1nc2cc(-c3cccc(OCc4ccccc4Cl)c3)ccc2[nH]1` [Example 14, ({5-[3-(2-Chloro-benzyloxy)-phenyl]-1H-benzoimidazole-2-carbonyl}-amino)-acetic acid], the IC50 at PHD2181-417 is 2510 nM. The “Cellular % EPO Stimulation” value in the experiment on Hep-3B cells is reported as −3.80%. On to `O=C(O)CNC(=O)c1nc2ccccc2[nH]1` [Example 1, [(1H-Benzoimidazole-2-carbonyl)-amino]-acetic acid], for which the “Cellular % EPO Stimulation” value with Hep-3B cells was found to be 23.9%. In the case of `Cc1nn(-c2nc3cc(Br)ccc3[nH]2)c(C)c1C(=O)O` [Example 57, 1-(5-Bromo-1H-benzoimidazol-2-yl)-3,5-dimethyl-1H-pyrazole-4-carboxylic acid], the IC50 at PHD2181-417 is 63100 nM. The same measure, in the same setting: the same measure for `O=C(O)c1cnn(-c2nc3cc(-c4ccc(O)cc4)ccc3[nH]2)c1` [Example 59, 1-[5-(4-Hydroxy-phenyl)-1H-benzoimidazol-2-yl]-1H-pyrazole-4-carboxylic acid]: 251 nM; for `Cc1cc2nc(-n3cc(C(=O)O)cn3)[nH]c2cc1C` [Example 36, 1-(5,6-Dimethyl-1H-benzoimidazol-2-yl)-1H-pyrazole-4-carboxylic acid]: 794 nM. Consider `O=C(O)CNC(=O)c1nc2ccc(Br)cc2[nH]1` [Example 9, [(6-Bromo-1H-benzoimidazole-2-carbonyl)-amino]-acetic acid], for which, in the experiment with Hep-3B cells, the “Cellular % EPO Stimulation” value is listed as 9.80%. Consider `O=C(O)CNC(=O)c1nc2cc(C(F)(F)F)cc(C(F)(F)F)c2[nH]1` [Example 6, [(5,7-Bis-trifluoromethyl-1H-benzoimidazole-2-carbonyl)-amino]-acetic acid], for which, in the experiment on Hep-3B cells, the “Cellular % EPO Stimulation” value came out at 4.20%. Take `Cc1nn(-c2nc3cc(Cl)c(Cl)cc3[nH]2)c(C)c1C(=O)O` [Example 58, 1-(5,6-Dichloro-1H-benzoimidazol-2-yl)-3,5-dimethyl-1H-pyrazole-4-carboxylic acid]: the IC50 on PHD2181-417 was > 10000 nM.

(Values after US20150284335A1, “Benzoimidazoles as prolyl hydroxylase inhibitors” (Janssen Pharmaceutica NV, priority 2008, published 2015).)
